The source of these data is PMC9229294, “Pyridazinones and Structurally Related Derivatives with Anti-Inflammatory Activity” (Molecules, 2022).

Where two headings read alike, the source gives them in different places.

The test system of data set [1] is LPS-induced NF-κB activity in THP1-Blue cells. As to the kind of experiment: Inhibition of LPS-induced NF-κB transcriptional activity, alkaline phosphatase reporter, THP1-Blue cells. It is filed as cell-based, human. The settings on record: for Effect of blocking FPR1 (Boc-MLF) on inhibitor activity on LPS-induced NF-κB activation: 25 μM Boc-MLF 15 min, then 5 µM compound, LPS-treated THP1 cells; for IC50: Homo sapiens, LPS-induced NF-κB activity, human THP1-Blue cells, N.A. = no activity at 50 µM; for Observed class for inhibition of NF-κB activity: experimentally observed, Active or N.A. In short, it runs like this:
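THP1-Blue cells (NF-κB-inducible secreted alkaline phosphatase reporter) pretreated 30 min with compound at final 3.125–50 µM (1% DMSO), then stimulated with 250 ng/mL LPS for 24 h. Supernatant alkaline phosphatase read at 655 nm with QUANTI-Blue, relative to LPS-only controls.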

In data set [2] the test system is LPS-induced IL-6 production in MonoMac-6 cells. Kind of data set: Inhibition of LPS-induced IL-6 production in MonoMac-6 cells (ELISA). To be noted: for IC50: Homo sapiens, MONO-MAC-6, read-out: Inhibition of IL-6 Production IC50 in MonoMac-6 Cells. Type of data set: cell-based, human. In short, it runs like this:
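MonoMac-6 cells pretreated 30 min with compound (3.125–50 µM, 1% DMSO), then stimulated 24 h with 250 ng/mL LPS. IL-6 measured by ELISA; IC50 from percent inhibition vs log concentration, at least five points.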
(In an ELISA, binding on a coated surface is turned into a signal by an enzyme label.)

Data set [3] addresses T1, FPR1 (Homo sapiens, UniProt P21462).
T1 construct: expressed in transfected cells; host or cells: HL-60 cells (FPR1-HL60)
T1 sequence (P21462 1-350): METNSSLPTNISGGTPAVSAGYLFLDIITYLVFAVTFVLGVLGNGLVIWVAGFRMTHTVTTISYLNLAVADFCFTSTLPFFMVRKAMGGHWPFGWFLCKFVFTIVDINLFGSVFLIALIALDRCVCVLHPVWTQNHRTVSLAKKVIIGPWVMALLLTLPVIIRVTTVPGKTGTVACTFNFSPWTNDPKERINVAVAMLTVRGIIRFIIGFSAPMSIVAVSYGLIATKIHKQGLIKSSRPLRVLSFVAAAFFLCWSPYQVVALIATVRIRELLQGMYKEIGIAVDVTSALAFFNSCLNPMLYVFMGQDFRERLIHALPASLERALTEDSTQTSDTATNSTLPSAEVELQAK
The settings on record: Table 3; FPR1-transfected HL-60 cells; as reported previously (see Table 1); read-out: Ca2+ Mobilization FPR1 EC50 in HL-60 Cells; cited from earlier work. In general terms: Calcium assays in cells follow changes in intracellular calcium, usually with a dye or a luminescent sensor.

The nature of data set [4]: Cytotoxicity, CellTiter-Glo, MonoMac-6 cells. Type of data set: cell-based, human. The settings on record: human, MonoMac-6 cells. The protocol:
(§1) Our studies included 175 compounds that were previously synthesized and characterized at NEUROFARBA, Pharmaceutical and Nutraceutical Section, University of Florence, Italy. We previously evaluated the FPR1/FPR2 agonist activity of these compounds by evaluating their ability to induce Ca^2+ mobilization in FPR-transfected HL60 cells and human neutrophils. […] All test compounds were dissolved in DMSO at stock concentrations of 10 mM and stored at −20 °C. For primary screening assays (analysis of NF-κB activation, IL-6 production, and cytotoxicity), the following final concentrations of the compounds were used: 3.125, 6.25, 12.5, 25, and 50 µM; the final concentration of DMSO was 1% in all samples.
(§2) The cytotoxicity was analyzed with a CellTiter-Glo Luminescent Cell Viability Assay Kit from Promega (Madison, WI, USA), according to the manufacturer’s protocol. The luminescent ATP assays are based on a luciferase enzymatic reaction which uses ATP from viable cells to generate photons. For this assay, the cells were incubated with the compounds under investigation for 24 h. After treatment, the cells were equilibrated to room temperature for 30 min, luciferase + luciferin substrate was added, and the samples were analyzed with a Fluoroscan Ascent FL (Thermo Fisher Scientific, Waltham, MA, USA). The IC50 values were calculated by plotting the percentage inhibition against the logarithm of the inhibitor concentration (at least five points).
In general terms: In ATP-based viability assays light output follows the ATP content of the culture.

For data set [5], the system named is rats with CFA-induced inflammatory arthritis. On the set-up: method as in PMID 32388428. The settings on record: cited from earlier work.
Data set [6] in a line: Cytotoxicity, CellTiter-Glo, THP1-Blue cells. Type of data set: cell-based, human. To be noted: human, THP1-Blue cells; N.T. = no cytotoxicity at 50 µM; read-out: Cytotoxicity IC50 in THP1-Blue Cells. In short, it runs like this:
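THP1-Blue or MonoMac-6 cells were exposed for 24 h to compounds at 3.125–50 µM final (1% DMSO). Viability was read as ATP-dependent luminescence (CellTiter-Glo). IC50 came from % inhibition plotted against log concentration (at least five points).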

Data set [7] has as its target T2, FPR2 (Homo sapiens, UniProt P25090).
T2 construct: expressed in transfected cells; host or cells: HL-60 cells (FPR2-HL60)
T2 sequence (P25090 1-351): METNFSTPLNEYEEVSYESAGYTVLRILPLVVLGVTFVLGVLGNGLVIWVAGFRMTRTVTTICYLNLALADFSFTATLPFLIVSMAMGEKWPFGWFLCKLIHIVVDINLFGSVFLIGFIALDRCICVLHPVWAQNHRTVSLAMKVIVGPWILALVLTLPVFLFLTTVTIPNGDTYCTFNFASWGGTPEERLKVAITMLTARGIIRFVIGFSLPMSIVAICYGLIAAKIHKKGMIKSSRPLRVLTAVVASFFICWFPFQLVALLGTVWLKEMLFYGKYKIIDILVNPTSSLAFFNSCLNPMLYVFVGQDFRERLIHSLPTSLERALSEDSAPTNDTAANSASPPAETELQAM
To be noted: FPR2-transfected HL-60 cells, read-out: Ca2+ Mobilization FPR2 EC50 in HL-60 Cells, cited from earlier work.

Data set [8] has as its target T1, FPR1. Kind of data set: Ca2+ mobilization in FPR1-transfected HL-60 cells (agonist activity). It is filed as cell-based. To be noted: reported here for the first time (Suppl.). The method, then:
(§3) Changes in the intracellular Ca^2+ [Ca^2+]i were measured with a FlexStation II scanning fluorometer (Molecular Devices). The cells, which were suspended in Hank’s balanced salt solution without Ca^2+ and Mg^2+ but with 10 mM HEPES (HBSS^−), were loaded with 1.25 μg/mL Fluo-4 AM dye and incubated for 30 min in the dark at 37 °C. After the dye loading, the cells were washed with HBSS^− containing 10 mM HEPES, resuspended in HBSS^+ containing Ca^2+, Mg^2+, and 10 mM HEPES (HBSS^+), and aliquoted into the wells of black microtiter plates (2 × 10^5 cells/well). […] The maximum change in the fluorescence during the first 3 min, expressed in arbitrary units over the baseline, was used to determine a response. […] A curve fitting (5–6 points) and a calculation of median effective inhibitory concentrations (IC50) were performed by nonlinear regression analysis of the dose–response curves generated using Prism 8 (GraphPad Software, Inc., San Diego, CA, USA).

Data set [9] has as its target T2, FPR2. Kind of data set: Ca2+ mobilization in FPR2-transfected HL-60 cells (agonist activity). It is filed as cell-based. The settings on record: reported here for the first time (Suppl.). The method, then: as §3
The subject of data set [10] is MonoMac-6 cells. As to the kind of experiment: Cytotoxicity, CellTiter-Glo, MonoMac-6 cells. Type of data set: cell-based, human. The settings on record: 24 h. The protocol: as §1, §2
For data set [11], the system named is mouse aortas. Details: method as in PMID 19639995, PMID 32085666, PMID 28169296. The settings on record: cited from earlier work.
Data set [12] deals with myocardial infarction injury in mice. On the set-up: method as in PMID 19639995, PMID 32085666, PMID 28169296. To be noted: cited from earlier work.

`COc1cccc(Cc2c(-c3ccccc3)c(C)nn(CC(=O)Nc3ccc(Br)cc3)c2=O)c1` [Compound 71, N-(4-bromophenyl)-2-[5-(3-methoxybenzyl)-3-methyl-6-oxo-4-phenylpyridazin-1(6H)-yl]-acetamide]: in [1], the “Effect of blocking FPR1 (Boc-MLF) on inhibitor activity on LPS-induced NF-κB activation” value is listed as “no effect”. The IC50 – broadly, the concentration that gives 50% inhibition – in [1] came out at 0.5 ± 0.1 µM; in data set [2] it was 2 ± 0.3 µM. Also, the “Inhibition of LPS-induced NF-κB activity (in words)” value in data set [1] (THP1-Blue cells, 250 ng/mL LPS, 24 h) is recorded as “inhibited”. Moreover, the “Observed class for inhibition of NF-κB activity” value in data set [1] is “Active”. Further, the “Inhibition of LPS-induced IL-6 production (in words)” value in data set [2] (MonoMac-6 cells, 250 ng/mL LPS, 24 h) is reported as “inhibited”. In addition, the EC50 (commonly the concentration at which the effect is half-maximal) in data set [3] was 2.2 µM; in data set [7] (agonist activity from Table 1), above 50 µM; in data set [7] (Table 3, as reported previously (see Table 1)) it was above 50 µM. Also, the IC50 at 24 h in data set [4] and in data set [6] was above 50 µM in each case. Also, the Pain hypersensitivity result in data set [5] was “reduce pain hypersensitivity”.
As for `Cc1cc(Cc2ccc(C(=O)Nc3ccc(Br)cc3)cc2)c(=O)n(CC(=O)Nc2ccc(Br)cc2)n1` [Compound 61], the EC50 in data set [8] and in [9] was above 50 µM in each case.
Take `Cc1cc(Cc2ccsc2)c(=O)n(CC(=O)Nc2ccc(Br)cc2)n1` [Compound 9]: the IC50 in data set [1] was 18 ± 0.7 µM; in data set [2] it was 27.5 ± 1.6 µM. The “Observed class for inhibition of NF-κB activity” value in data set [1] is on record as “Active”. For the same molecule, the “Cytotoxicity in MonoMac-6 cells (in words)” value in data set [10] is “exhibiting cytotoxicity”. The 50% inhibitory concentration (IC50) at 24 h is 19 ± 3.6 µM in data set [4] and above 50 µM in [6].
Consider `Nc1cc(-c2ccncc2)cn(CC(=O)Nc2ccc(Br)cc2)c1=O` [Compound 139], for which the EC50 in data set [8] and in [9] was above 50 µM throughout.
`COc1cccc(Cc2cc(C)nn(C(C)C(=O)Nc3ccc(Br)cc3)c2=O)c1` (centres unmarked) [Compound 84, N-(4-bromophenyl)-2-[5-(3-methoxybenzyl)-3-methyl-6-oxopyridazin-1(6H)-yl]-propanamide]: the “Effect of blocking FPR1 (Boc-MLF) on inhibitor activity on LPS-induced NF-κB activation” value in data set [1] is reported as “no effect”. In addition, the IC50 amounted to 0.6 ± 0.1 µM in data set [1] and 30.7 ± 1.8 µM in data set [2]. Moreover, in data set [11], the Endothelium-independent relaxation entry was “induce endothelium-independent relaxation”. Further, the half-inhibitory concentration (IC50) at 24 h in data set [4] and in data set [6] was above 50 µM in each case. For the same molecule, the “Cardioprotection in myocardial infarction injury” value in [12] was “cardioprotection effect”.
